In patent publication EP3725799B1, “PEPTIDE BINDING TO PL-L1 AND USE THEREOF” (Kyungpook National University Industry-Academic Cooperation …, priority 2017, dated 2025):
No end group written: not given here.

Experiments:
[1] = Serum stability of PD-L1 targeting peptides; format: in vitro ADME; conditions: incubated with whole serum obtained from mice up to 24h; HPLC peptide peak
Description: Mouse blood was collected and allowed to cloth using a microtube for 15-20 min in RT. Serum was then centrifuged at 12000rpm at 4 °C. The upper portion (serum) was collected for testing the peptide stability. The incubated samples were diluted 100-fold and fractionated by C18 reverse phage high performance liquid chromatography (HPLC) with a linear gradient of acetonitrile (0.1% trifluoroacetate in water for equilibration and 0.1% trifluoroacetate in acetonitrile for elution). The peptide peak was collected and vacuum dried.
To measure the KD values of the peptides SPR assays were performed using a streptavidin chip coated with biotin-peptides (FIG. 3a and FIG. 3b). Four different concentrations of PD-L1 binding peptides were for PD-L1Pep-2. […] PD-L1 expression was then knocked down in the MDA-MB231 cell expressing PD-L1. siRNA was tested at different concentration (FIG. 3d). […] To further examine the stability of PD-L1 binding peptides, the peptide was incubated with whole serum obtained from mice up to 24h.

[2] = system: CT26 mouse syngeneic colon tumor model; assay: Combination therapy of PD-L1 binding peptides with doxorubicin (tumor volume, body weight, survival, immune cell analysis by flow cytometry); format: in vivo
Description: (§1) 6-8-week-old WT Balb/c mice were purchased. Mice was cared and maintained under the guidelines of the Institutional Animal Care and Use Committee (IACUC) of Kyungpook National University (2014-0001-8.). Tumor was injected onto the lower right flank of the mice. For the in-vivo homing imaging, the tumor was developed for 7 days, after the tumor size reached to 100mm^3, the mice were injected with 100µl of 100mM Flamma-675 NIR fluorescence dye labelled peptides and allow the complete circulation for an hour. After incubation, the mice were anesthetized, and the image was taken using the IVIS imaging system. After completing the imaging, the mice were sacrificed and the tumor along with the other organs were isolated out and subjected to ex-vivo imaging using the IVIS imaging machine. For the antitumor therapy the mice were randomized and grouped after the tumor size was reached to approximately 100mm^3. The peptide was then injected intravenously (5mg/kg) 100µg/mice for 3 weeks, 3 injections/ week. Doxorubicin was injected intraperitoneal (4mg/kg) once a week. Tumor size was measured using a digital caliper, and the tumor volume was calculated using the formula (Volume ¼(L-W-H)/2. (Length: longest dimension, Width: shorter dimension, parallel to the mouse body and Height: perpendicular to the length and width). All mice were checked for the ulceration and at the end of the treatment and the mice were sacrificed for the immune cell analysis.
(§2) Tumors were isolated, minced and incubated with a digestion buffer containing collagenase D (5mg/ml) with the RPMI-1640 medium at 37 °C for 40min. The cell suspension was passed through a cell strainer. The single cell suspension was made ready to use and CD45 antibody was used to stain the tumor infiltrating leukocytes and then analyzed with following antibodies for CD4, CD8 and F4/80. The stained cells were then subjected to flow cytometry (Novocyte).
To enhance the efficacy of immunotherapy with PD-L1-binding peptides, the present inventors combined the peptides with doxorubicin, a chemotherapeutic agent known to induce immunogenic cell death, in CT26 mouse syngeneic colon tumor model. PD-L1 peptides doses were reduced from 12 injections to 9 injections and doxorubicin was given once a week (FIG. 6a). The combination therapy controlled the tumor volume more drastically compared to the previous single treatment (FIG. 6b). In addition, the combination therapy maintained the body weight unchanged compared to the control group, and increased the survival percentage (FIG. 6c and FIG. 6d).

[3] = system: CT26 syngeneic mouse model; assay: Antitumor therapy with PD-L1 binding peptides alone (tumor volume, body weight, survival, immune cell analysis, immunostaining); format: in vivo; conditions: peptide intravenously every alternative day for 24 days; compared to the control peptide and PBS group
Description: as §1, with “After completing the imaging, the mice were sacrificed and the tumor along with the other organs were isolated out and subjected to ex-vivo imaging using the IVIS imaging machine. For the antitumor therapy the mice were randomized and grouped after the tumor size was reached to approximately 100mm^3. The peptide was then injected intravenously (5mg/kg) 100µg/mice for 3 weeks, 3 injections/ week. Doxorubicin was injected intraperitoneal (4mg/kg) once a week.” left out, “analysis. […]” for “analysis.”
as §2, with “The cell suspension was passed through a cell strainer.” left out, “The stained cells were then subjected to flow cytometry (Novocyte).” left out

[4] = molecular target: T1, GFP-tagged PD-L1 transiently overexpressed on Hek-293T cells (human, UniProt Q9NZQ7 19-290); assay: phage peptide display selection on PD-L1 overexpressing cells
T1 construct: whole, on cells; also called PD-L1-overexpressing cells; not shown: GFP tag
T1 sequence (Q9NZQ7 19-290): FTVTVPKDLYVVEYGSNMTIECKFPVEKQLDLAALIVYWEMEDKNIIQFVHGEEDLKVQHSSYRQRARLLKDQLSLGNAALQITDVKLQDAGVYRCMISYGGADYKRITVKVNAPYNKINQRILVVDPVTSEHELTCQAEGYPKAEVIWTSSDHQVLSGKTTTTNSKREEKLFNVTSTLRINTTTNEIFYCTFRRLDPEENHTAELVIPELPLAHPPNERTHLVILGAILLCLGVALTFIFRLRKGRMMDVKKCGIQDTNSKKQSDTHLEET

PD-L1 on MDA-MB231 cells = molecular target: T2, PD-L1 on MDA-MB231 cells (human, UniProt Q9NZQ7 19-290); assay: immunofluorescence and flow cytometry, FITC-peptide on MDA-MB231 cells
T2 construct: whole, on cells; also called MDA-MB 231 cells expressing PD-L1
T2 sequence (Q9NZQ7 19-290): as above

[5] = molecular target: T1, GFP-tagged PD-L1 transiently …; assay: immunofluorescence, FITC-peptide on transfected HEK 293T cells
[6] = 'from' value of the printed increase, apparently single peptide treatment
[7] = 'to' value of the printed increase, apparently combination with doxorubicin

With CLQKTPKQC [PD-L1Pep-1] the “time the peptide peak remained intact in serum” value [1] was 8 h, the “CD4+ T cells in tumor tissue” value [2, 6] was 0.4% and the “expression percentage of CD8+ T cells in tumor tissue” value [2, 6] was 1.5%. The “CD4+ T cells in tumor tissue” value [2, 7] was 6%, the “expression percentage of CD8+ T cells in tumor tissue” value [2, 7] was 6.2% and the tumor volume [3] was “robust effect”.

For CVRARTR [PD-L1Pep-2, CVRARTR], the “time the peptide peak remained intact in serum” value [1] was 4 h.

B1: PD-L1Pep-1 (peptide)
peptide: CLQKTPKQC
modifications: cysteine pairing not given here; also: N-terminal FITC, biotin or Flamma-675 according to assay
notes: also called PBP
B1: binds [4]; binds (PD-L1 on MDA-MB231 cells).

B2: PD-L1Pep-2 (peptide)
peptide: CVRARTR
modifications: also: N-terminal FITC, biotin or Flamma-675 according to assay
notes: Synthetic 7mer (CVRARTR); also called PBP
B2: binds [5]; binds (PD-L1 on MDA-MB231 cells).
